In patent US20230391772A1, “METHODS AND COMPOSITIONS FOR TARGETED PROTEIN DEGRADATION” (Ranok Therapeutics (Hangzhou) Co. Ltd., priority 2020, published 2023):

Experiments:
[1] = biological target: T1, HSP90a protein (Homo sapiens, UniProt P07900); assay: HSP90α-binding fluorescent polarization (FP) assay, BODIPY-labeled RNK04010 probe; details: FP competition with RNK04010 (BODIPY-labeled), 5 nM, 300 min at 25° C.
T1 construct: purchased BPS Bioscience 50298
Outline: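 Displacement of a 5 nM fluorescent HSP90 ligand from the N-terminal HSP90a domain by FP. Incubation ran at 25° C: 120 min for the FITC-geldanamycin tracer, 300 min for the BODIPY-conjugated triazolone RNK04010.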

[2] = biological target: T2, KRAS(G12C) (Homo sapiens, UniProt P01116, G12C); assay: KRAS(G12C) Western blot protein degradation assay in LU65A cells; format: cell-based; parameters: LU65A human lung cancer cell line, which expresses KRAS(G12C); host or cells: LU65A; details: 6 hr
T2 sequence (P01116 1-188 isoform P01116-2 G12C): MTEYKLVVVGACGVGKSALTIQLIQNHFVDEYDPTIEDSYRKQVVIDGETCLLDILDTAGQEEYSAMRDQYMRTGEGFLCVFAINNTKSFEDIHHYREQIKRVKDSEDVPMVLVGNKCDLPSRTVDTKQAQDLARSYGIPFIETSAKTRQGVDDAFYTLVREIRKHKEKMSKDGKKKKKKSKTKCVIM
Outline: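 Cells treated with compound at various concentrations at 37 °C for 48 hr (MIA PaCa-2) or 6 hr (LU65A), then lysed in RIPA. Protein-normalized lysates immunoblotted for KRAS with β-actin, fluorescence quantified; DC50 is the concentration giving 50% of maximal KRAS degradation.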

[3] = biological target: T2, KRAS(G12C); assay: KRAS(G12C)/SOS1 homogeneous time-resolved fluorescence (HTRF) assay; parameters: purchased Cisbio 63ADK000CB16PEG; details: absence of GTP, 4° C. for 3 hr, read-out: KRAS (G12C) binding
Outline: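 HTRF kit measuring compound-induced block of KRAS(G12C)-SOS1 interaction without GTP. Compounds tested as 3-fold serial dilutions down to 1.02 nM, incubated with reaction components 3 h at 4 °C in sealed plates before fluorescence read.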

[4] = system: MIA PaCa-2 human pancreatic carcinoma; assay: MIA PaCa-2 CCK-8 proliferation assay; format: cell-based; details: Homo sapiens, MIA PaCa-2, 72 h, MIA PaCa-2 cells
Outline: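 MIA PaCa-2 (2 copies KRAS(G12C)), NCI-H358 and NCI-H23 (1 copy KRAS(G12C) each) were exposed to compound in 3-fold serial dilutions from 20 μM to 1.02 nM. Viability was read as CCK-8 absorbance, and % inhibition was computed against DMSO-treated cells, with cell-free DMSO medium as blank.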

With `C=CC(=O)N1CCN(c2nc(OC[C@@H]3CC[C@H](CN4CCN(C(=O)C5CCN(Cc6ccc(-n7c(O)nnc7-c7cc(C)c(O)cc7O)cc6)CC5)CC4)N3C)nc3c2CCN(c2cccc4cccc(Cl)c24)C3)C[C@@H]1CC#N` [Compound 319, 2-[(2S)-4-[7-(8-chloronaphthalen-1-yl)-2-{[(2S,5R)-5-({4-[1-({4-[3-(2,4-dihydroxy-5-methylphenyl)-5-hydroxy-1,2,4-triazol-4-yl]phenyl}methyl)piperidine-4-carbonyl]piperazin-1-yl}methyl)-1-methylpyrrolidin-2-yl]methoxy}-5H,6H,8H-pyrido [3,4-d]pyrimidin-4-yl]-1-(prop-2-enoyl)piperazin-2-yl]acetonitrile] the IC50 [1] was < 100 nM, the DC50 [2] was 100 to 1000 nM and the IC50 [3] was < 100 nM. For the same compound, the EC50 [4] was 100 to 1000 nM.
For `C=CC(=O)N1CCN(c2nc(OC[C@@H]3C[C@H](C(=O)NCCOCCOc4ccc(-n5c(O)nnc5-c5cc(CC)c(O)cc5O)cc4)CN3C)nc3c2CCN(c2cccc4cccc(Cl)c24)C3)C[C@@H]1CC#N` [Compound 349, (3S,5S)-5-({[7-(8-chloronaphthalen-1-yl)-4-[(3S)-3-(cyanomethyl)-4-(prop-2-enoyl)piperazin-1-yl]-5H,6H,8H-pyrido[3,4-d]pyrimidin-2-yl]oxy}methyl)-N-[2-(2-{4-[3-(5-ethyl-2,4-dihydroxyphenyl)-5-hydroxy-1,2,4-triazol-4-yl]phenoxy}ethoxy)ethyl]-1-methylpyrrolidine-3-carboxamide], the IC50 [1] was < 100 nM, the DC50 [2] was 100 to 1000 nM and the IC50 [3] was < 100 nM. The EC50 [4] was > 1000 nM.
`C=CC(=O)N1CCN(c2nc(OCCN3CCN(C(=O)C4CCN(Cc5ccc(-n6c(C(N)=O)nnc6-c6cc(C(C)C)c(O)cc6O)cc5)CC4)CC3)nc3c2CCN(c2cccc4cccc(Cl)c24)C3)C[C@@H]1CC#N` [Compound 193, (S)-4-(4-((4-(4-(2-((4-(4-acryloyl-3-(cyanomethyl)piperazin-1-yl)-7-(8-chloronaphthalen-1-yl)-5,6,7,8-tetrahydropyrido[3,4-d]pyrimidin-2-yl)oxy)ethyl)piperazine-1-carbonyl)piperidin-1-yl)methyl)phenyl)-5-(2,4-dihydroxy-5-isopropylphenyl)-4H-1,2,4-triazole-3-carboxamide] was tested, and the IC50 [1] was < 100 nM, the DC50 [2] was 100 to 1000 nM and the IC50 [3] was < 100 nM. For the same compound, the EC50 [4] was 100 to 1000 nM.
With `C=CC(=O)N1CCN(c2nc(OCCN3CCN(Cc4ccc(-n5c(O)nnc5-c5cc(C(C)C)c(O)cc5O)cc4)CC3)nc3c2CCN(c2cccc4cccc(Cl)c24)C3)C[C@@H]1CC#N` [Compound 351, 2-[(2S)-4-[7-(8-chloronaphthalen-1-yl)-2-{2-[4-({4-[3-(2,4-dihydroxy-5-isopropylphenyl)-5-hydroxy-1,2,4-triazol-4-yl]phenyl}methyl)piperazin-1-yl]ethoxy}-5H,6-H,8H-pyrido[3,4-d]pyrimidin-4-yl]-1-(prop-2-enoyl)piperazin-2-yl]acetonitrile] the IC50 [1] was < 100 nM, the DC50 [2] was 100 to 1000 nM and the IC50 [3] was < 100 nM. The EC50 [4] was 100 to 1000 nM.
`C=CC(=O)N1CCN(c2nc(OC[C@@H]3C[C@H](N4CCC(C(=O)N5CC6(CCN(Cc7ccc(-n8c(O)nnc8-c8cc(C(C)C)c(O)cc8O)cc7)CC6)C5)CC4)CN3C)nc3c2CCN(c2cccc4cccc(Cl)c24)C3)C[C@@H]1CC#N` [Compound 348, 2-[(2S)-4-[7-(8-chloronaphthalen-1-yl)-2-{[(2S,4S)-4-{4-[7-({4-[3-(2,4-dihydroxy-5-isopropylphenyl)-5-hydroxy-1,2,4-triazol-4-yl]phenyl}methyl)-2,7-diazaspiro [3.5]nonane-2-carbonyl]piperidin-1-yl}-1-methylpyrrolidin-2-yl]methoxy}-5H,6-H,8H-pyrido[3,4-d]pyrimidin-4-yl]-1-(prop-2-enoyl)piperazin-2-yl]acetonitrile] was tested, and the IC50 [1] was < 100 nM, the DC50 [2] was 100 to 1000 nM and the IC50 [3] was < 100 nM. For the same compound, the EC50 [4] was 100 to 1000 nM.
In the case of `C=CC(=O)N1CCN(c2nc(OCC3CN(Cc4ccc(-n5c(O)nnc5-c5cc(C(C)C)c(O)cc5O)cc4)C3)nc3c2CCN(c2cccc4cccc(Cl)c24)C3)C[C@@H]1CC#N` [Compound 231, (S)-2-(1-acryloyl-4-(7-(8-chloronaphthalen-1-yl)-2-((1-(4-(3-(2,4-dihydroxy-5-isopropylphenyl)-5-hydroxy-4H-1,2,4-triazol-4-yl)benzyl)azetidin-3-yl)methoxy)-5,6,7,8-tetrahydropyrido[3,4-d]pyrimidin-4-yl)piperazin-2-yl)acetonitrile], the IC50 [1] is reported as < 100 nM, the DC50 [2] is reported as > 1000 nM and the IC50 [3] is reported as 100 to 1000 nM. For the same compound, the EC50 [4] was > 1000 nM.
In the case of `C=CC(=O)N1CCN(c2nc(OC[C@@H]3C[C@H](C(=O)N4CC5(CCN(Cc6ccc(-n7c(O)nnc7-c7cc(C(C)C)c(O)cc7O)cc6)CC5)C4)CN3C)nc3c2CCN(c2cccc4cccc(Cl)c24)C3)C[C@@H]1CC#N` [Compound 230, 2-[(2S)-4-[7-(8-chloronaphthalen-1-yl)-2-{[(2S,4S)-4-[7-({4-[3-(2,4-dihydroxy-5-isopropylphenyl)-5-hydroxy-1,2,4-triazol-4-yl]phenyl}methyl)-2,7-diazaspiro[3.5]nonane-2-carbonyl]-1-methylpyrrolidin-2-yl]methoxy}-5H,6H,8H-pyrido[3,4-d]pyrimidin-4-yl]-1-(prop-2-enoyl)piperazin-2-yl]acetonitrile], the IC50 [1] is reported as < 100 nM, the DC50 [2] is reported as > 1000 nM and the IC50 [3] is reported as < 100 nM. The EC50 [4] was 100 to 1000 nM.
For `C=CC(=O)N1CCN(c2nc(OCC3CN(Cc4ccc(-n5c(O)nnc5-c5cc(C)c(O)cc5O)cc4)C3)nc3c2CCN(c2cccc4cccc(Cl)c24)C3)C[C@@H]1CC#N` [Compound 232, (S)-2-(1-acryloyl-4-(7-(8-chloronaphthalen-1-yl)-2-((1-(4-(3-(2,4-dihydroxy-5-methylphenyl)-5-hydroxy-4H-1,2,4-triazol-4-yl)benzyl)azetidin-3-yl)methoxy)-5,6,7,8-tetrahydropyrido[3,4-d]pyrimidin-4-yl)piperazin-2-yl)acetonitrile], the IC50 [1] was < 100 nM, the DC50 [2] was > 1000 nM and the IC50 [3] was < 100 nM. The EC50 [4] was > 1000 nM.
With `C=CC(=O)N1CCN(c2nc(OC[C@@H]3C[C@H](N4CCC(C(=O)N5CCN(Cc6ccc(-n7c(C(=O)NCC(F)(F)F)nnc7-c7cc(C)c(O)cc7O)cc6)CC5)CC4)CN3C)nc3c2CCN(c2cccc4cccc(Cl)c24)C3)C[C@@H]1CC#N` [Compound 336, 4-{4-[(4-{1-[(3S,5S)-5-({[7-(8-chloronaphthalen-1-yl)-4-[(3S)-3-(cyanomethyl)-4-(prop-2-enoyl)piperazin-1-yl]-5H,6H,8H-pyrido[3,4-d]pyrimidin-2-yl]oxy}methyl)-1-methylpyrrolidin-3-yl]piperidine-4-carbonyl}piperazin-1-yl)methyl]phenyl}-5-(2,4-dihydroxy-5-methylphenyl)-N-(2,2,2-trifluoroethyl)-1,2,4-triazole-3-carbox-amide] the IC50 [1] was < 100 nM, the DC50 [2] was > 1000 nM and the IC50 [3] was < 100 nM. For the same compound, the EC50 [4] was 100 to 1000 nM.
With `C=CC(=O)N1CCN(c2nc(OCC3CN(C(=O)C4CCN(Cc5ccc(-n6c(C(=O)NCC(F)(F)F)nnc6-c6cc(C(C)C)c(O)cc6O)cc5)CC4)C3)nc3c2CCN(c2cccc4cccc(Cl)c24)C3)C[C@@H]1CC#N` [Compound 220, (S)-4-(4-((4-(3-(((4-(4-acryloyl-3-(cyanomethyl)piperazin-1-yl)-7-(8-chloronaphthalen-1-yl)-5,6,7,8-tetrahydropyrido[3,4-d]pyrimidin-2-yl)oxy)methyl)azetidine-1-carbonyl)piperidin-1-yl)methyl)phenyl)-5-(2,4-dihydroxy-5-isopropylphenyl)-N-(2,2,2-trifluoroethyl)-4H-1,2,4-triazole-3-carboxamide] the IC50 [1] was < 100 nM, the DC50 [2] was > 1000 nM and the IC50 [3] was 100 to 1000 nM. For the same compound, the EC50 [4] was 100 to 1000 nM.
With `C=CC(=O)N1CCN(c2nc(OC[C@@H]3C[C@H](C(=O)N4CCN(Cc5ccc(-n6c(C(=O)NCC(F)(F)F)nnc6-c6cc(C)c(O)cc6O)cc5)CC4)CN3C)nc3c2CCN(c2cccc4cccc(Cl)c24)C3)C[C@@H]1CC#N` [Compound 347, 4-[4-({4-[(3S,5S)-5-({[7-(8-chloronaphthalen-1-yl)-4-[(3S)-3-(cyanomethyl)-4-(prop-2-enoyl)piperazin-1-yl]-5H,6H,8H-pyrido[3,4-d]pyrimidin-2-yl]oxy}methyl)-1-methylpyrrolidine-3-carbonyl]piperazin-1-yl}methyl)phenyl]-5-(2,4-dihydroxy-5-methylphenyl)-N-(2,2,2-trifluoroethyl)-1,2,4-triazole-3-carboxamide] the IC50 [1] was < 100 nM, the DC50 [2] was > 1000 nM and the IC50 [3] was < 100 nM. For the same compound, the EC50 [4] was 100 to 1000 nM.
